The text below walks through data of patent US5650398A, “Drug delivery enhancement via modified saponins” (Cambridge Biotech Corporation, priority 1995, dated 1997).

Structures are written as SMILES.

For data set [1] the following is noted: literature values; cited from earlier work.
For another data set, the system named is Sprague-Dawley rats. Nature of the data set: Intranasal delivery of gentamicin, serum gentamicin by fluorescence polarization immunoassay. The format is in vivo. The conditions noted are these: 5 mg/kg gentamicin, 1.32 mM enhancer. As to the method: Experimental Conditions: Sprague-Dawley rats (male, 205-240 g) were anesthetized by intramuscular injection of 7.5 mg/kg xylazine with 50 mg/kg ketamine. Gentamicin (40 μl) was administered intranasally at time 0. Formulations contained 5 mg/kg gentamicin, with and without 1.32 mM QH-957. Blood was withdrawn from the tail vein at various timepoints. Serum gentamicin levels were measured using a fluorescence polarization immunoassay. The assay was linear from 0.3-10.0 μg/ml, and the limit of detection was 0.3 μg/ml. A value of 0.3 μg/ml was used in plotting the timepoints with serum levels below the limit of detection. Groups of 3 animals were used. Data are presented as ±standard error of the mean.
Experimental Conditions: Sprague-Dawley rats (male, 205-240 g) were anesthetized by intramuscular injection of 7.5 mg/kg xylazine with 50 mg/kg ketamine. Gentamicin (40 μl) was administered intranasally at time 0. […] Serum gentamicin levels were measured using a fluorescence polarization immunoassay. […]
Sprague-Dawley rats (male, 205-240 g) were anesthetized by intramuscular injection of 7.5 mg/kg xylazine with 50 mg/kg ketamine. […] Serum gentamicin levels were measured using a fluorescence polarization immunoassay. […] The area under the serum gentamicin concentration curve (AUC) was calculated using the trapezoidal rule. […]

For a further data set, the system named is rabbits. The conditions noted are these: nasal administration; cited from earlier work.

`CC1(C)[C@@H](O[C@H]2O[C@H](C(=O)O)[C@@H](O)[C@H](O)[C@H]2O[C@@H]2O[C@H](C(=O)O)[C@@H](O)[C@H](O)[C@H]2O)CC[C@]2(C)[C@H]3C(=O)C=C4[C@@H]5C[C@@](C)(C(=O)O)CC[C@]5(C)CC[C@@]4(C)[C@]3(C)CC[C@@H]12` [glycyrrhizic acid]: the “concentration needed for drug delivery” value in data set [1] is given as 23.8 mM. The “enhanced intranasal permeation of gentamicin (serum gentamicin levels)” value with Sprague-Dawley rats is listed as “did not”.
On to `C[C@H](CCC(=O)NCC(=O)[O-])[C@H]1CC[C@H]2[C@@H]3[C@H](O)C[C@@H]4C[C@H](O)CC[C@]4(C)[C@H]3C[C@H](O)[C@]12C.[Na+]` [sodium glycocholate], for which, in data set [1], the “concentration needed for drug delivery” value was 20.5 mM. In the data set on rabbits, the “total absorption of β-interferon relative to intravenous administration” value is listed as 2.2%. The “enhanced intranasal permeation of gentamicin (serum gentamicin levels)” value in the data set on Sprague-Dawley rats is “did not”.
